Results: US8415469B2, “Compounds and methods for kinase modulation, and indications therefor” (Plexxikon Inc., priority 2005, dated 2013)

What was measured:
Assay type in all cases: biochemical
[1] = target: T1, Jnk2 (Homo sapiens, UniProt P45984); test: AlphaScreen kinase assay, Jnk2; conditions: read-out: IC50, activity toward kinase Jnk2
T1 construct: purchased Roche Protein Expression Group (Indianapolis, IN)
Summary of the method: (§1)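 Bead-proximity format: phosphopeptide links anti-phospho antibody acceptor beads to streptavidin donor beads via biotin tag. Compounds were serially diluted 1:3 (8 points) from 20 mM stocks in DMSO.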

[2] = target: T2, c-Raf-1 (Homo sapiens, UniProt P04049); test: AlphaScreen kinase assay, c-Raf-1; conditions: read-out: IC50, activity toward kinase c-Raf-1
T2 construct: purchased Upstate Biotechnology

[3] = target: T3, TEC (Homo sapiens, UniProt P42680); test: AlphaScreen kinase assay, TEC; conditions: read-out: IC50, activity toward kinase TEC
T3 sequence (P42680 1-631): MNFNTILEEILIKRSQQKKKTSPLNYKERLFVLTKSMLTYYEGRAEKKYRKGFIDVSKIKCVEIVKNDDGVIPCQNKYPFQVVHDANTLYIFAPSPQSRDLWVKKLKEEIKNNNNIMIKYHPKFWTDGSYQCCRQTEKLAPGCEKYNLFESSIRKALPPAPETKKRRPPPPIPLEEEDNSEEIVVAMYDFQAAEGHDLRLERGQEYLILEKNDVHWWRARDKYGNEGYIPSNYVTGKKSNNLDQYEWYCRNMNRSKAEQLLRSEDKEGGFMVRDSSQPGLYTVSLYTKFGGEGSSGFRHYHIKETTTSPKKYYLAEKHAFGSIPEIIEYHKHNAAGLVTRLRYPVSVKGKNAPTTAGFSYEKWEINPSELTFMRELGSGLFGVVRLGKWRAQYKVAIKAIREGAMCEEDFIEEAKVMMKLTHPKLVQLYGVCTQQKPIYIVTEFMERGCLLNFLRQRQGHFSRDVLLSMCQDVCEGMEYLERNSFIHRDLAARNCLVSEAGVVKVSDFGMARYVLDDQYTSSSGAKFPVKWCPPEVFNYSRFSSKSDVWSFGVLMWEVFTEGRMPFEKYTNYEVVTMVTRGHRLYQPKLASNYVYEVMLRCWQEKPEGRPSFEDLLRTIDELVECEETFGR
Text: AlphaScreen assay was used to screen additional kinases. The assay is similarly dependent on the phosphorylation of a peptide substrate. In this assay, an antibody that recognizes phosphorylated substrate is bound to an acceptor bead. The peptide substrate is attached to biotin, which binds to a donor head that contains streptavidin. Thus phosphorylated substrate is bound by antibody and streptavidin, bringing the donor and acceptor heads into close proximity when kinase is not inhibited. The donor produces singlet oxygen which results in emission from the acceptor when they are in close proximity. Conversely, when kinase is inhibited, the donor and acceptor beads are not associated and the emission from the acceptor is reduced.
AlphaScreen assays were done using compounds dissolved in DMSO to a concentration of 20 mM. The compounds were diluted accordingly to the desired final concentrations in each sample well, using 1:3 serial dilution for a total of 8 concentration points.

[4] = target: T4, FGFR1 (Homo sapiens, UniProt P11362, C488A/C584S); test: AlphaScreen kinase assay, FGFR1; conditions: read-out: IC50, activity toward kinase FGFR
T4 construct: P1351.pET N6 BI-PTP FGFR A458-E765-X C488A, C584S; made in house; host or cells: E. coli (PTP1B co-expressed)

[5] = target: T5, B-Raf V600E (Homo sapiens, UniProt P15056, V600E); test: AlphaScreen kinase assay, B-Raf V600E; conditions: read-out: IC50, activity toward kinase B-Raf V600E
T5 construct: P4254. pFastBacBD-CDC37 BRAF D437-K722-X, V600E; His6 with pFastBac HT leader (TEV site) (N); made in house; host or cells: Sf9 (baculovirus; chaperone CDC37 co-expressed)

[6] = target: T6, Btk (Homo sapiens, UniProt Q06187); test: Z'-Lyte FRET kinase assay (Invitrogen), Btk; conditions: read-out: IC50, activity toward kinase Btk
T6 construct: purchased Invitrogen (assay run by Invitrogen)

[7] = target: T7, Met (Homo sapiens, UniProt P08581); test: AlphaScreen kinase assay, Met; conditions: read-out: IC50, activity toward kinase Met
T7 construct: P1818.pETN6 BI-PTP MET G1056-G1364-X WT; His6 (N); made in house; host or cells: E. coli (PTP1B co-expressed)
Summary of the method: as §1

[8] = target: T8, Jnk1 (Homo sapiens, UniProt P45983); test: AlphaScreen kinase assay, Jnk1; conditions: read-out: IC50, activity toward kinase Jnk1
T8 construct: purchased Upstate Biotechnology

[9] = target: T9, Ret (Homo sapiens, UniProt P07949); test: AlphaScreen kinase assay, Ret; conditions: read-out: IC50, activity toward kinase Ret
T9 construct: P1378.pET-SF BI-PTP RET H661-R1012 HIS; made in house
T9 sequence (P07949 with tags, fused parts or gaps): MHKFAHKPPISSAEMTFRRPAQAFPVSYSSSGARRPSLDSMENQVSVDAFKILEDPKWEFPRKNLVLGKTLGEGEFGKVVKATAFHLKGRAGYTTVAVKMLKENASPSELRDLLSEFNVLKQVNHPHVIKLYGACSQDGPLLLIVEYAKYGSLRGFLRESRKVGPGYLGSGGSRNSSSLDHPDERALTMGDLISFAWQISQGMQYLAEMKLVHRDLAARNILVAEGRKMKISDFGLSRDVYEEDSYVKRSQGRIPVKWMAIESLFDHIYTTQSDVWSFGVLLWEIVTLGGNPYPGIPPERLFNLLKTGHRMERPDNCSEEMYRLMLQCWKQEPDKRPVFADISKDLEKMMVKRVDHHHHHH

[10] = target: T10, Zap70 (Homo sapiens, UniProt P43403); test: AlphaScreen kinase assay, Zap70; conditions: read-out: IC50, activity toward kinase Zap70
T10 construct: P1868.pFastBac1 ZAP70 D327-G606 HIS, WT; His7 (HHHHHHH) (C); made in house
T10 sequence (P43403 with tags, fused parts or gaps): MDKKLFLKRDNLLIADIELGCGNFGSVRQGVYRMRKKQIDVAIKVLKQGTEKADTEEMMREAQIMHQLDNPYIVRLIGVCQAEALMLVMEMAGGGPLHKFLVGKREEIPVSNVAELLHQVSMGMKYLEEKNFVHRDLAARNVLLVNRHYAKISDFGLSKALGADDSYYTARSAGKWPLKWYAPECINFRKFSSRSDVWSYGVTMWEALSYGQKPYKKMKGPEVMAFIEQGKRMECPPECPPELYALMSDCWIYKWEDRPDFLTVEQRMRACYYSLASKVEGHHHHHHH
Summary of the method: as §1

[11] = target: T11, Jnk3 (Homo sapiens, UniProt P53779); test: AlphaScreen kinase assay, Jnk3; conditions: read-out: IC50, activity toward kinase Jnk3
T11 construct: purchased Upstate Biotechnology

[12] = target: T12, Fms (Homo sapiens, UniProt P07333); test: AlphaScreen kinase assay, Fms; conditions: read-out: IC50, activity toward kinase Fms
T12 construct: purchased Upstate Biotechnology

[13] = target: T13, B-Raf (Homo sapiens, UniProt P15056); test: AlphaScreen kinase assay, B-Raf; conditions: read-out: IC50, activity toward kinase B-Raf
T13 construct: purchased Upstate Biotechnology

[14] = target: T14, Kit (Homo sapiens, UniProt P10721); test: AlphaScreen kinase assay, Kit; conditions: read-out: IC50, activity toward kinase Kit
T14 construct: P1332.N6 BI PTP KIT M552-K948-X COD; His6 (N); made in house; host or cells: E. coli (PTP1B co-expressed)

[15] = target: T15, Pyk2 (Homo sapiens, UniProt Q14289); test: AlphaScreen kinase assay, Pyk2; conditions: read-out: IC50, activity toward kinase Pyk2
T15 construct: purchased Upstate Biotechnology

[16] = target: T16, Fak (Homo sapiens, UniProt Q05397); test: AlphaScreen kinase assay, Fak; conditions: read-out: IC50, activity toward kinase Fak
T16 construct: P1358.pFastBacHtb FAK S411-Q686-X; His6 with pFastBacHTb leader (TEV site) (N); made in house; host or cells: Sf9 (baculovirus)

[17] = target: T17, Src (Homo sapiens, UniProt P12931); test: AlphaScreen kinase assay, Src; conditions: read-out: IC50, activity toward kinase Src
T17 construct: P1144. pET-N6 BI-PTP SRC V86-L536-X; made in house

T4 sequence (P11362 458-765 C488A/C584S): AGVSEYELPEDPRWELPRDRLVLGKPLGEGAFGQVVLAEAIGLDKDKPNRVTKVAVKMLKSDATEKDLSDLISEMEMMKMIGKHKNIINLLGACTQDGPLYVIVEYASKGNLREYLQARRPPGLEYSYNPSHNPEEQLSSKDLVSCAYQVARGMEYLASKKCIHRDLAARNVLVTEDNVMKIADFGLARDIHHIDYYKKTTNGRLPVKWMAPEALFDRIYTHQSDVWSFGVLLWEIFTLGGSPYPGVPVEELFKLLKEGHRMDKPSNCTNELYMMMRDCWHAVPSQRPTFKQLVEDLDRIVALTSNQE
T11 sequence (P53779 whole entry): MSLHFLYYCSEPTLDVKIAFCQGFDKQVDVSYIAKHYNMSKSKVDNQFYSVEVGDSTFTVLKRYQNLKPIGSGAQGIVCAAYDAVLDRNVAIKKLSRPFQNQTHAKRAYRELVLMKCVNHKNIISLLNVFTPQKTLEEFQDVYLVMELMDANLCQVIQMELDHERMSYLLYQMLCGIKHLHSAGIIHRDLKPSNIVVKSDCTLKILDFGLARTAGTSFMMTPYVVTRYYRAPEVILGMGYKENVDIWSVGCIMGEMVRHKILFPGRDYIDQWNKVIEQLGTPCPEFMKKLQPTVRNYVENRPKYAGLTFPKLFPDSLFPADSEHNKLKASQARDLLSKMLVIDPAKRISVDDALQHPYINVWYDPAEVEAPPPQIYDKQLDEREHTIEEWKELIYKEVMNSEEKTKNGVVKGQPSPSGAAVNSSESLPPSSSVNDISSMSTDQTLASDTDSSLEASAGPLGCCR
T13 sequence (P15056 whole entry): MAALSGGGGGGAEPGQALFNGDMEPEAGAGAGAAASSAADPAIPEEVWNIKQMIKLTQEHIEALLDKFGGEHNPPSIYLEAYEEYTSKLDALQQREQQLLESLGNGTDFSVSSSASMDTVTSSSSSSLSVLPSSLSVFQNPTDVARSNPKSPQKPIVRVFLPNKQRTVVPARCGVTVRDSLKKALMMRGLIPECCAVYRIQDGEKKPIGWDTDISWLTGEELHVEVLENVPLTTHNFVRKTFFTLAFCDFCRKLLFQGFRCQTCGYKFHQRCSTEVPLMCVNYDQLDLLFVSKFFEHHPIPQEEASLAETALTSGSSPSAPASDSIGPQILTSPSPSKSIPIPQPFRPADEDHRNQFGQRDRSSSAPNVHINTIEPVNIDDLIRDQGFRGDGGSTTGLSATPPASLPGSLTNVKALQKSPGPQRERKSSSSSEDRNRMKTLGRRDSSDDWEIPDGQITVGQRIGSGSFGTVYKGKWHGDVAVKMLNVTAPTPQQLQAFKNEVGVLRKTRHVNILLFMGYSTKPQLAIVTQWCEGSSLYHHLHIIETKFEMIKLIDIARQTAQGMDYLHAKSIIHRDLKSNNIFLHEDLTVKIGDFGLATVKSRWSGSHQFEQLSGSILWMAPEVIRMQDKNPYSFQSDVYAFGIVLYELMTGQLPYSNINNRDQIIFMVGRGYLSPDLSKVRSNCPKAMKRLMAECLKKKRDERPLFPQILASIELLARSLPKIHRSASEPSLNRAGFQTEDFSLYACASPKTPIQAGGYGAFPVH
T2 sequence (P04049 whole entry): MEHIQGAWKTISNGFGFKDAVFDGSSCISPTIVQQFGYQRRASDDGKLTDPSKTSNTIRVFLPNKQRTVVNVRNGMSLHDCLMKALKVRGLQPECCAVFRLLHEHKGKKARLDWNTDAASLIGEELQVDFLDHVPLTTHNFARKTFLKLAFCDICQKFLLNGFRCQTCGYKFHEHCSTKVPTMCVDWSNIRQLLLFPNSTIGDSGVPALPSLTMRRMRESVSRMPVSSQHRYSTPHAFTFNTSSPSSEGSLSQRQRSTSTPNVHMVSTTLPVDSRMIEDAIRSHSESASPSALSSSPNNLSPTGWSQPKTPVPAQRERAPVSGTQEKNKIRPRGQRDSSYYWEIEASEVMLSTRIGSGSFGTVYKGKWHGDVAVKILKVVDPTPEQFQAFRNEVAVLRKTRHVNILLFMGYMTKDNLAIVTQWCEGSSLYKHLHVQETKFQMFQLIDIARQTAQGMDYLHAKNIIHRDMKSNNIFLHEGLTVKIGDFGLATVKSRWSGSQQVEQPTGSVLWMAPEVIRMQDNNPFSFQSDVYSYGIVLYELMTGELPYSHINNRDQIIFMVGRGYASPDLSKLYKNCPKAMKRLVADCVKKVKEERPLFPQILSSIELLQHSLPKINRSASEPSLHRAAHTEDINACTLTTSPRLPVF
T8 sequence (P45983 whole entry): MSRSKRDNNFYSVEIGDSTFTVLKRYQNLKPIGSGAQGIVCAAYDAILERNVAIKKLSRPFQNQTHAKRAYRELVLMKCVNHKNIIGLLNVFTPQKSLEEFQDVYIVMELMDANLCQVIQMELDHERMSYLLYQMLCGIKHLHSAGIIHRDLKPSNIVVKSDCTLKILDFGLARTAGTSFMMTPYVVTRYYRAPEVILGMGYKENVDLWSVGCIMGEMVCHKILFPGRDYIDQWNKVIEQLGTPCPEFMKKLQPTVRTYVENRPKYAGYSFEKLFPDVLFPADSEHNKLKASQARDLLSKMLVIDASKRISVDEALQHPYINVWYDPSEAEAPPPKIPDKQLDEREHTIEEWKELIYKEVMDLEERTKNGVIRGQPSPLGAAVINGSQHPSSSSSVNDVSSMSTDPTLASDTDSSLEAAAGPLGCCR
T5 sequence (P15056 with tags, fused parts or gaps V600E): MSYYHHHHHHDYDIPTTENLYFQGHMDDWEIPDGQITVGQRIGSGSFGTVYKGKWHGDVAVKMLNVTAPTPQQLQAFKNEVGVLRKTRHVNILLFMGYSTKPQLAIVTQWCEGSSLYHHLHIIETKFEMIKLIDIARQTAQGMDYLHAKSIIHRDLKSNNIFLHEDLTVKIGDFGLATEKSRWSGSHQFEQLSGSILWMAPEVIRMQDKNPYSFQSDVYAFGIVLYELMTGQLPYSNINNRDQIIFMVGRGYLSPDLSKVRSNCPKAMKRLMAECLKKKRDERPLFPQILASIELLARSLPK
T1 sequence (P45984 whole entry): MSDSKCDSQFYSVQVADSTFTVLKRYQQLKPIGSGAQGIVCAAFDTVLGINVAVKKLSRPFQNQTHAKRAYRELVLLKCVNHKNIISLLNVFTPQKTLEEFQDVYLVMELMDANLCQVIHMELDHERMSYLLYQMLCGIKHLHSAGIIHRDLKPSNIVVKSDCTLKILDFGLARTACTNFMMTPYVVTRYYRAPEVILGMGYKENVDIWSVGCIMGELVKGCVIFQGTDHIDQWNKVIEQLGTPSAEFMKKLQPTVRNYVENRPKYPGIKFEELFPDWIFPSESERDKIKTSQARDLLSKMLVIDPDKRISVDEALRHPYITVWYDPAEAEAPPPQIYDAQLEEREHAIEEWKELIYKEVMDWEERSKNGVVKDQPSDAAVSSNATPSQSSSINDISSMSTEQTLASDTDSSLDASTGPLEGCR
T12 sequence (P07333 20-972): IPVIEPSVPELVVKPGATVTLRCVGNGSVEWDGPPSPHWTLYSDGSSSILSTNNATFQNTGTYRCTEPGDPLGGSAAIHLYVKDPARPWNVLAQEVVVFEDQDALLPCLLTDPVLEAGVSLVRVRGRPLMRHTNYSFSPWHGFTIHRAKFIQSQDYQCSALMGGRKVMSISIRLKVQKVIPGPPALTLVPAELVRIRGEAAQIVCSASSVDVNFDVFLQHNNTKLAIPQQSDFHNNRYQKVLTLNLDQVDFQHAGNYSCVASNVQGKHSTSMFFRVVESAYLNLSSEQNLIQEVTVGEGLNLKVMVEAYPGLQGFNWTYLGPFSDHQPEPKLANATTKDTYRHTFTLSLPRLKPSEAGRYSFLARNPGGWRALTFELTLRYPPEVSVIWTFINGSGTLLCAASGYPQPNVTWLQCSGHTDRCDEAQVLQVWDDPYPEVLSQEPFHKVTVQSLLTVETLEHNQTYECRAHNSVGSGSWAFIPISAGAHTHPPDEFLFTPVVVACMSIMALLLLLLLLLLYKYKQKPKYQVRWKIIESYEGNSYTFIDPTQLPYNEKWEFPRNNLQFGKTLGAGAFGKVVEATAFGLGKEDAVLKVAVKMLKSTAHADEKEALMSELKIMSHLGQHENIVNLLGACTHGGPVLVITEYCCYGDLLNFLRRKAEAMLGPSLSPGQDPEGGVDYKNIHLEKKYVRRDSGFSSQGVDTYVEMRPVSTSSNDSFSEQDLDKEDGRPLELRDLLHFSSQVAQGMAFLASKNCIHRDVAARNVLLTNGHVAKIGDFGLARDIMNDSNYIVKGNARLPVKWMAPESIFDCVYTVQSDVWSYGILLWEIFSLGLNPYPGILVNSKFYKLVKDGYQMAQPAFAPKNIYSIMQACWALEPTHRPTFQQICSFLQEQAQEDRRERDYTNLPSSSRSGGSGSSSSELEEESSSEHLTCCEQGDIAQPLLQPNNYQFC
T6 sequence (Q06187 whole entry): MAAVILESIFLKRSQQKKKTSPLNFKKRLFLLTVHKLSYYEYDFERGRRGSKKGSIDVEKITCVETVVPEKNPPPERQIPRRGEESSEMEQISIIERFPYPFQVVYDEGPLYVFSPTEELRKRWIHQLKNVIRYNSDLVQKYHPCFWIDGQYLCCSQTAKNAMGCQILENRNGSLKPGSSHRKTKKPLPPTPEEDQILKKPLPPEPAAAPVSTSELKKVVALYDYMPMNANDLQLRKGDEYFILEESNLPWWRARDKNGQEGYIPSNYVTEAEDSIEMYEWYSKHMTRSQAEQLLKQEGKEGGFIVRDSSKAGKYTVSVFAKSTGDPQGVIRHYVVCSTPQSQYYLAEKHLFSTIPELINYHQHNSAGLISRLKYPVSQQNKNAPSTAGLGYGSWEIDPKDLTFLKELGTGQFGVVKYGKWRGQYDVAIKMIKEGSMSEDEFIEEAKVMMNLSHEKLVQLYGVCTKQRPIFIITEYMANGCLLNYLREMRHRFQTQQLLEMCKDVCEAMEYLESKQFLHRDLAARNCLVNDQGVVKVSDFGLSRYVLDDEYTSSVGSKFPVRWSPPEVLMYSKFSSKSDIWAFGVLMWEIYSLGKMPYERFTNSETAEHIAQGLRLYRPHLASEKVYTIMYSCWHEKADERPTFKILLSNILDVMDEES

| IC50 [1] [µM] | IC50 [2] [µM] | IC50 [3] [µM] | IC50 [4] [µM] | IC50 [5] [µM] | IC50 [6] [µM] | IC50 [7] [µM] | IC50 [8] [µM] | IC50 [9] [µM] | IC50 [10] [µM] | IC50 [11] [µM] | IC50 [12] [µM] | IC50 [13] [µM] | IC50 [14] [µM] | IC50 [15] [µM] | IC50 [16] [µM] | IC50 [17] [µM] | Structure (SMILES) |
| --- | --- | --- | --- | --- | --- | --- | --- | --- | --- | --- | --- | --- | --- | --- | --- | --- | --- |
| ≤ 10 | ≤ 10 | ≤ 10 | ≤ 10 | ≤ 10 | ≤ 10 | ≤ 10 | ≤ 10 | ≤ 10 | – | – | – | – | – | – | – | – | CS(=O)(=O)Nc1cccc(-c2cnc3[nH]cc(C(=O)c4cc(NS(C)(=O)=O)ccc4F)c3c2)c1 [Compound P-0156, N-{4-Fluoro-3-[5-(3-methanesulfonylamino-phenyl)-1H-pyrrolo[2,3-b]pyridine-3-carbonyl]-phenyl}-methanesulfonamide] |
| ≤ 10 | ≤ 10 | ≤ 10 | ≤ 10 | ≤ 10 | ≤ 10 | ≤ 10 | ≤ 10 | ≤ 10 | ≤ 10 | ≤ 10 | ≤ 10 | ≤ 10 | – | – | – | – | CS(=O)(=O)Nc1ccc(F)c(C(=O)c2c[nH]c3ncc(-c4cccc(C(N)=O)c4)cc23)c1 [Compound P-0228, 3-[3-(2-Fluoro-5-methanesulfonylamino-benzoyl)-1H-pyrrolo[2,3-b]pyridin-5-yl]-benzamide] |
| – | ≤ 10 | ≤ 10 | ≤ 10 | ≤ 10 | ≤ 10 | – | ≤ 10 | ≤ 10 | – | ≤ 10 | ≤ 10 | ≤ 10 | ≤ 10 | ≤ 10 | ≤ 10 | – | COC(=O)Nc1ccc(F)c(Cc2c[nH]c3ncc(-c4cccnc4)cc23)c1F [Compound P-0257, [2,4-Difluoro-3-(5-pyridin-3-yl-1H-pyrrolo[2,3-b]pyridin-3-ylmethyl)-phenyl]-carbamic acid methyl ester] |
| ≤ 10 | ≤ 10 | ≤ 10 | ≤ 10 | ≤ 10 | ≤ 10 | – | ≤ 10 | ≤ 10 | – | – | ≤ 10 | ≤ 10 | – | – | – | – | CS(=O)(=O)Nc1ccc(F)c(C(=O)c2c[nH]c3ncc(-c4cccc(S(C)(=O)=O)c4)cc23)c1 [Compound P-0297, N-{4-Fluoro-3-[5-(3-methanesulfonyl-phenyl)-1H-pyrrolo[2,3-b]pyridine-3-carbonyl]-phenyl}-methanesulfonamide] |
| – | – | ≤ 10 | – | – | ≤ 10 | – | – | – | – | – | – | – | – | – | – | – | O=C(NCc1ccc(CCc2c[nH]c3ncccc23)cc1)Nc1ccccc1 [Compound P-0429] |
| – | ≤ 10 | ≤ 10 | ≤ 10 | ≤ 10 | ≤ 10 | – | ≤ 10 | – | – | – | – | ≤ 10 | – | ≤ 10 | – | – | CCCS(=O)(=O)Nc1cccc(C(=O)c2c[nH]c3ncc(-c4ccccc4)cc23)c1F [Compound P-0897, Propane-1-sulfonic acid [2-fluoro-3-(5-phenyl-1H-pyrrolo[2,3-b]pyridine-3-carbonyl)-phenyl]-amide] |
| – | ≤ 10 | ≤ 10 | ≤ 10 | ≤ 10 | ≤ 10 | – | ≤ 10 | – | – | ≤ 10 | – | ≤ 10 | – | ≤ 10 | – | – | C=C(C)c1cnc2[nH]cc(C(=O)c3c(F)ccc(NS(=O)(=O)CCC)c3F)c2c1 [Compound P-0991, Propane-1-sulfonic acid [2,4-difluoro-3-(5-isopropenyl-1H-pyrrolo[2,3-b]pyridine-3-carbonyl)-phenyl]-amide] |
| – | ≤ 10 | ≤ 10 | ≤ 10 | ≤ 10 | ≤ 10 | – | ≤ 10 | – | – | – | – | ≤ 10 | – | ≤ 10 | – | ≤ 10 | CCCS(=O)(=O)Nc1ccc(F)c(C(=O)c2c[nH]c3ncc(C(C)C)cc23)c1F [Compound P-0997] |
